Data published in US20080269161A1, “Compositions and Methods Relating to Mitochondrial Hyperpolarization in Neurological Disease” (priority 2005, published 2008).
Entries after “also recorded” stand apart in the source; their conditions may differ.

System: CA1 pyramidal neurons in hippocampal slices
Parameters: species or system rodent
Experimental: CA1 pyramidal neurons were exposed to 1 μM cPAF or vehicle for 30-60min and simultaneously imaged and recorded by whole-cell patch clamp before and after delivery of a high-frequency stimulus (HFS: three 1s, 100 Hz trains, every 20 s) applied to Schaffer collateral axons via a bipolar stimulating electrode planted in the stratum radiatum. (A) Dendrite beading in a cPAF-exposed cell 45min after HFS, with no disruption of dendrite or spine morphology in control cells. […] (C) Excitatory synaptic transmission between Shaffer collateral axons and CA1 pyramidal neurons is strongly potentiated following HFS in control slices. […] (EPSP traces at baseline and 40 min from representative control cell and cPAF-treated beaded cell are at right.) […]
Explant hippocampal slices are exposed to HIV-1 neurotoxins±agents that reverse mitochondrial hyperpolarization. Beading and LTP are then be measured:
Hippocampal slice preparation: Brains from anesthetized P14-28 rodents are rapidly removed and cooled in sucrose based artificial cerebrospinal fluid (ACSF) containing in mM: 110 sucrose, 60 NaCl, 3 KCl, 1.25 NaH2PO4, 28 NaHCO3, 10 D-glucose, 0.5 CaCl2, 7 MgSO4, 0.6 ascorbate. The brains are blocked and fixed to a specimen stage with cyanoacrylate. Coronal slices (250-400 μm in thickness) are cut with a vibroslicer (World Precision Instruments, Fla., USA) equipped with a Peltier cooling system. The middle four to six slices of each hippocampus (with the entorhinal cortex removed) are placed into a holding chamber prior to use.
Measuring dendritic beading and postsynaptic potentials in single CA1 cells in hippocampal slices: Dendritic arbors of individual CA1 pyramidal cells are imaged while simultaneously recording excitatory postsynaptic potentials in the same cell by patch clamp recordings in whole-cell configuration. Recording pipettes ([…] resistance) are pulled from 1.5 mm borosilicate glass using a horizontal Flaming/Brown micropipette puller (Sutter Instrument Co, Calif.), fire-polished, and filled with intracellular recording solution (in mM: KCl 20, potassium gluconate 130, EGTA 0.5, HEPES 10, MgSO4 2, ATP 2.5, GTP 0.5, pH 7.3). In order to visualize dendrites of the recorded cell, Alexa 568 hydrazide (30 μM) is included in the recording pipette and is injected by small negative current pulses for 15-20 min prior to recording in order to fill the dendritic arbor. Hippocampal slices are bathed in artificial CSF (containing, in mM: NaCl 125, KCl 2.5, NaH2PO4 1.25, NaHCO3 25, CaCl2 2, MgCl2 1, D-glucose 25, oxygenated and buffered with 5% CO2). Membrane potentials of CA1 pyramidal cells are recorded in current clamp mode, and postsynaptic potentials are evoked by test pulses of constant-current stimulation applied via a bipolar stimulating electrode placed 50-200 μm away in the stratum radiatum. Bicuculline (10 μM) is included in the bath to isolate excitatory postsynaptic potentials. After at least 10 min of consistent baseline recording, a high-frequency LTP induction stimulus (HFS, consisting of four 1 s, 100 Hz trains delivered every 15 s) is applied. EPSPs are recorded for 60 min following HFS. At the same time, dendrites are imaged at 40× magnification by fluorescence microscopy, using a shutter to limit fluorescent light exposure and prevent phototoxic injury to the slice. Serial images of dendrites are compared to detect development of focal swellings along dendritic shafts following HFS. Cells are scored as beaded if swellings develop along any of their dendrites.
Field potential recording and induction of LTP in hippocampal slices: Single-cell recordings are complemented by extracellular field potential recordings: while single cell recordings allow correlation of electrophysiologic data with dendritic beading in the same cell, extracellular recordings sample responses from populations of dendrites and are less invasive. […]

[1] = HIV-1 neurotoxin with vehicle treatment

Compound: CCCCCCCCCCCCCCCCOC[C@H](COP(=O)([O-])OCC[N+](C)(C)C)OC(=O)NC [PAF, carbamyl-platelet-activating factor]
- cells with beading elicited by HFS (1 μM cPAF, 30-60 min): half of the cells
- potentiation of EPSPs after HFS, cells that did not develop dendrite beading (1 μM cPAF, 30-60 min): smaller potentiation
- potentiation of EPSPs after HFS, cells whose dendrites did bead (1 μM cPAF, 30-60 min): failure of long-term potentiation; also recorded: not potentiated at all
- Beading Prediction [1]: Occurs
- LTP Prediction [1]: Failure
- Δψm [1]: Hyperpolarized
